This assay addresses T1, Zcchc11 enzyme (Homo sapiens, UniProt Q5TAX3).
T1 construct: made in house; host or cells: HEK293 cells (Zcchc11); E. coli Rosetta II (LIN28A)
T1 sequence (Q5TAX3 212-1420): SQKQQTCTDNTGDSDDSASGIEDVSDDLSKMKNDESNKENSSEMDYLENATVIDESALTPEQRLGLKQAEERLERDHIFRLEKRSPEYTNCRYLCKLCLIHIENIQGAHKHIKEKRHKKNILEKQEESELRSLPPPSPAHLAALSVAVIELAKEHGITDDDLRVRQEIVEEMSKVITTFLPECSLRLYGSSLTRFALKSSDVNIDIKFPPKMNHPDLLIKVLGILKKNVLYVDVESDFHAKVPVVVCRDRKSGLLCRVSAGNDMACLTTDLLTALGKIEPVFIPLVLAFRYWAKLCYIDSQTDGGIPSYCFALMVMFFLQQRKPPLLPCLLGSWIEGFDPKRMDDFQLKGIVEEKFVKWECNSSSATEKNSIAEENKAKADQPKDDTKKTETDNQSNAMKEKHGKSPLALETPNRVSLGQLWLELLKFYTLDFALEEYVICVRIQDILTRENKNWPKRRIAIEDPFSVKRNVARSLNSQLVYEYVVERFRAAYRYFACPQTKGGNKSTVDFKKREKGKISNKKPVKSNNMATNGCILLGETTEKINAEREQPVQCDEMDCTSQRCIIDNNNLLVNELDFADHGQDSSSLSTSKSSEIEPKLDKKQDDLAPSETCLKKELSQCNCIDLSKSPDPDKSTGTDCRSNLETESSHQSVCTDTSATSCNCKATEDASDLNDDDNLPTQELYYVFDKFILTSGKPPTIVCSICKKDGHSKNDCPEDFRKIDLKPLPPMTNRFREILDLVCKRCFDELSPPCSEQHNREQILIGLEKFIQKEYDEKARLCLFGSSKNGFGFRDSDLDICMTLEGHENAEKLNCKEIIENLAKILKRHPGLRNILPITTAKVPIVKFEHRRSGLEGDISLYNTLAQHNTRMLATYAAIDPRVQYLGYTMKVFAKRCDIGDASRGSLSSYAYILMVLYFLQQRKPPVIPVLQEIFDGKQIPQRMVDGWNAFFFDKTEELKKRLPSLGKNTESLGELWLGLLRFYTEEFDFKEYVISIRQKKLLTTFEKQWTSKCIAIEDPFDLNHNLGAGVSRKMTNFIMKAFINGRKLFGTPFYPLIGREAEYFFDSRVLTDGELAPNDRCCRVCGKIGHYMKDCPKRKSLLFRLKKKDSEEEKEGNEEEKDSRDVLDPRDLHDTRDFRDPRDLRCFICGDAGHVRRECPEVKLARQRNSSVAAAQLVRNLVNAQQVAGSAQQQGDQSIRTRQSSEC
As to the kind of experiment: TUTase assay (Zcchc11 assay, Lin28a-dependent polyuridylation of pre-let-7). The class given is biochemical. The note with it: Lin28a-dependent Zcchc11 (Z11) TUTase assay; read-out: Potency Lin28a-dep Z11 IC50. Put shortly:
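Potency is measured as inhibition of LIN28A-driven U-tail addition to 2 nM pre-let-7 by 0.2 nM HEK293-derived Zcchc11 fragment with 5 uM UTP at room temperature. Tail growth appears as fluorescein quenching by an annealing rhodamine-A20 probe.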

The structures appear in SMILES notation. Structures can show the parent of a compound that is named as a salt.

As usually defined, the IC50 is the concentration that inhibits the measured activity by half. `CNC1CN(c2ccc(-n3cc(C(=O)O)c(=O)c4cc(Cl)c(N5CCC[C@@H]5COc5ncccc5Cl)cc43)cn2)C1` [Example 477, (R)-6-chloro-7-(2-(((3-chloropyridin-2-yl)oxy)methyl)pyrrolidin-1-yl)-1-(6-(3-(methyl-amino)azetidin-1-yl)pyridin-3-yl)-4-oxo-1,4-dihydroquinoline-3-carboxylic acid]: the 50% inhibitory concentration (IC50) is not above 1000 nM. For the molecule `O=C(O)c1cn(-c2ccc(N3CCNCC3)nc2)c2cc(N3CCC[C@@H]3COc3ncccc3Cl)c(Cl)cc2c1=O` [Example 478, (R)-6-chloro-7-(2-(((3-chloropyridin-2-yl)oxy)methyl)pyrrolidin-1-yl)-4-oxo-1-(6-(piperazin-1-yl)pyridin-3-yl)-1,4-dihydroquinoline-3-carboxylic acid], the IC50 is not above 1000 nM.

Regarding `O=C(O)c1cn(-c2cnn(CCN3CCC3)c2)c2cc(N3CCC[C@@H]3COc3ncccc3Cl)c(Cl)cc2c1=O` [Example 479, (R)-1-(1-(2-(azetidin-1-yl)ethyl)-1H-pyrazol-4-yl)-6-chloro-7-(2-(((3-chloropyridin-2-yl)oxy)methyl)pyrrolidin-1-yl)-4-oxo-1,4-dihydroquinoline-3-carboxylic acid], the half-maximal inhibitory concentration (IC50) was not above 1000 nM. In the case of `CNCCOc1ccc(-n2cc(C(=O)O)c(=O)c3cc(Cl)c(N4CCC[C@@H]4COc4ncccc4Cl)cc32)cn1` [Example 480, (R)-6-chloro-7-(2-(((3-chloropyridin-2-yl)oxy)methyl)pyrrolidin-1-yl)-1-(6-(2-(methyl-amino)ethoxy)pyridin-3-yl)-4-oxo-1,4-dihydroquinoline-3-carboxylic acid hydrochloride], the IC50 is not above 1000 nM. In the case of `COCCNc1cnc(-n2cc(C(=O)O)c(=O)c3cc(Cl)c(N4CCC[C@@H]4COc4ncccc4Cl)cc32)cn1` [Example 481, 6-chloro-7-[(2R)-2-{[(3-chloropyridin-2-yl)oxy]methyl}pyrrolidin-1-yl]-1-{5-[(2-methoxyethyl)amino]pyrazin-2-yl}-4-oxo-1,4-dihydroquinoline-3-carboxylic acid], the 50% inhibitory concentration (IC50) was not above 1000 nM. On to `COCCN1CC2(CC(n3cc(C(=O)O)c(=O)c4cc(Cl)c(N5CCC[C@@H]5COc5ncccc5Cl)cc43)C2)C1` [Example 482, (R)-6-chloro-7-(2-(((3-chloropyridin-2-yl)oxy)methyl)pyrrolidin-1-yl)-1-(2-(2-methoxy-ethyl)-2-azaspiro[3.3]heptan-6-yl)-4-oxo-1,4-dihydroquinoline-3-carboxylic acid], for which the IC50 is 1000 to 10000 nM.

As to `Nc1cnc(-n2cc(C(=O)O)c(=O)c3cc(Cl)c(N4CCC[C@@H]4COc4ncccc4Cl)cc32)cn1` [Example 483, 1-(5-aminopyrazin-2-yl)-6-chloro-7-[(2R)-2-{[(3-chloropyridin-2-yl)oxy]methyl}pyrrolidin-1-yl]-4-oxo-1,4-dihydroquinoline-3-carboxylic acid], the IC50 is not above 1000 nM. For the molecule `CC(C)(C)OC(=O)NC1CC(n2cc(C(=O)O)c(=O)c3cc(Cl)c(N4CCC[C@@H]4COc4ncccc4Cl)cc32)C1` (stereo partly drawn) [Example 484, (R)-1-(3-((tert-butoxycarbonyl)amino)cyclobutyl)-6-chloro-7-(2-(((3-chloropyridin-2-yl)oxy)methyl)pyrrolidin-1-yl)-4-oxo-1,4-dihydroquinoline-3-carboxylic acid], the half-inhibitory concentration (IC50) was not above 1000 nM. With `O=C(O)c1cn(-c2ncco2)c2cc(N3CCC[C@@H]3COc3ncccc3Cl)c(Cl)cc2c1=O` [Example 485, (R)-6-chloro-7-(2-(((3-chloropyridin-2-yl)oxy)methyl)pyrrolidin-1-yl)-1-(oxazol-2-yl)-4-oxo-1,4-dihydroquinoline-3-carboxylic acid], the IC50 was not above 1000 nM. Turning to `O=C(O)c1cn(-c2ccc3[nH]ncc3n2)c2cc(N3CCC[C@@H]3COc3ncccc3Cl)c(Cl)cc2c1=O` [Example 486, 6-chloro-7-[(2R)-2-{[(3-chloropyridin-2-yl)oxy]methyl}pyrrolidin-1-yl]-4-oxo-1-{1H-pyrazolo[4,3-b]pyridin-5-yl}-1,4-dihydroquinoline-3-carboxylic acid], the IC50 is not above 1000 nM. Consider `Cc1cc2c(=O)c(C(=O)O)cn(-c3cnccn3)c2cc1N1CCC[C@@H]1COc1ncccc1Cl` [Example 487, (R)-7-(2-(((3-chloropyridin-2-yl)oxy)methyl)pyrrolidin-1-yl)-6-methyl-4-oxo-1-(pyrazin-2-yl)-1,4-dihydroquinoline-3-carboxylic acid], for which the IC50 is not above 1000 nM. For the molecule `N#Cc1cc2c(=O)c(C(=O)O)cn(-c3ccc(N4CCC4)nc3)c2cc1N1CCC[C@@H]1COc1ncccc1Cl` [Example 488, 1-[6-(azetidin-1-yl)pyridin-3-yl]-7-[(2R)-2-{[(3-chloropyridin-2-yl)oxy)methyl}pyrrolidin-1-yl]-6-cyano-4-oxo-1,4-dihydroquinoline-3-carboxylic acid], the IC50 was not above 1000 nM. For `O=C(O)c1cn(-c2cccnc2)c2cc(N3CCC[C@@H]3COc3ncccc3Cl)c(Cl)cc2c1=O` [Example 489, (R)-6-chloro-7-(2-(((3-chloropyridin-2-yl)oxy)methyl)pyrrolidin-1-yl)-4-oxo-1-(pyridin-3-yl)-1,4-dihydroquinoline-3-carboxylic acid] the value was not above 1000 nM. Take `O=C(O)c1cn(-c2ccncc2)c2cc(N3CCC[C@@H]3COc3ncccc3Cl)c(Cl)cc2c1=O` [Example 490, (R)-6-chloro-7-(2-(((3-chloropyridin-2-yl)oxy)methyl)pyrrolidin-1-yl)-4-oxo-1-(pyridin-4-yl)-1,4-dihydroquinoline-3-carboxylic acid]: the 50% inhibitory concentration (IC50) was not above 1000 nM. In the case of `O=C(O)c1cn(-c2ccc(N3CCC3)nc2)c2cc(N3CCC[C@@H]3COc3ncccc3Cl)c(Br)cc2c1=O` [Example 491, (R)-1-(6-(azetidin-1-yl)pyridin-3-yl)-6-bromo-7-(2-(((3-chloropyridin-2-yl)oxy)methyl)pyrrolidin-1-yl)-4-oxo-1,4-dihydroquinoline-3-carboxylic acid], the half-inhibitory concentration (IC50) was not above 1000 nM. With `CN(C)CCNc1cnc(-n2cc(C(=O)O)c(=O)c3cc(Cl)c(N4CCC[C@@H]4COc4ncccc4Cl)cc32)cn1` [Example 492, (R)-6-chloro-7-(2-(((3-chloropyridin-2-yl)oxy)methyl)pyrrolidin-1-yl)-1-(5-((2-(dimethylamino)ethyl)amino)pyrazin-2-yl)-4-oxo-1,4-dihydroquinoline-3-carboxylic acid], the IC50 was not above 1000 nM.

`CS(=O)(=O)Nc1cnc(-n2cc(C(=O)O)c(=O)c3cc(Cl)c(N4CCC[C@@H]4COc4ncccc4Cl)cc32)cn1` [Example 493, (R)-6-chloro-7-(2-(((3-chloropyridin-2-yl)oxy)methyl)pyrrolidin-1-yl)-1-(5-(methyl-sulfonamido)pyrazin-2-yl)-4-oxo-1,4-dihydroquinoline-3-carboxylic acid]: the concentration for half-maximal inhibition (IC50) is not above 1000 nM. Turning to `COCCNC1CN(c2ccc(-n3cc(C(=O)O)c(=O)c4cc(Cl)c(N5CCC[C@@H]5COc5ncccc5Cl)cc43)cn2)C1` [Example 494, (R)-6-chloro-7-(2-(((3-chloropyridin-2-yl)oxy)methyl)pyrrolidin-1-yl)-1-(6-(3-((2-methoxyethyl)amino)azetidin-1-yl)pyridin-3-yl)-4-oxo-1,4-dihydroquinoline-3-carboxylic acid], the IC50 is not above 1000 nM.

Take `COCCN(C)C1CN(c2ccc(-n3cc(C(=O)O)c(=O)c4cc(Cl)c(N5CCC[C@@H]5COc5ncccc5Cl)cc43)cn2)C1` [Example 495, (R)-6-chloro-7-(2-(((3-chloropyridin-2-yl)oxy)methyl)pyrrolidin-1-yl)-1-(6-(3-((2-methoxyethyl) (methyl)amino)azetidin-1-yl)pyridin-3-yl)-4-oxo-1,4-dihydroquinoline-3-carboxylic acid]: the IC50 is not above 1000 nM. For `O=C(O)c1cn(-c2ccc(N3CC4(CNC4)C3)nc2)c2cc(N3CCC[C@@H]3COc3ncccc3Cl)c(Cl)cc2c1=O` [Example 496, (R)-1-(6-(2,6-diazaspiro[3.3]heptan-2-yl)pyridin-3-yl)-6-chloro-7-(2-(((3-chloropyridin-2-yl)oxy)methyl)pyrrolidin-1-yl)-4-oxo-1,4-dihydroquinoline-3-carboxylic acid] the value was not above 1000 nM.

Values taken from patent US12662491B2 (Redona Therapeutics, Inc., priority 2020, dated 2026).
